Experimental data from US20080050448A1, “ANTIMICROBIAL CONJUGATES” (priority 2006, published 2008).

How the values were obtained:
[1] = tested on: Staphylococcus aureus NCTC 6571; assay: Lethal photosensitisation of S. aureus by gold nanoparticle-photosensitiser mixtures, white light, viable counting; assay type: cell-based
Procedure: Gold nanoparticles (2.0 nm diameter; British Biocell International) in water (15×10^13 particles per ml) were mixed with an equal volume of an aqueous solution of toluidine blue O (40 μM) and left at room temperature for 15 minutes. 100 μl of the gold-TB solution was added to 100 μl of a suspension of Staphylococcus aureus NCTC 6571 in phosphate buffered saline (PBS) and this was irradiated with white light from a fluorescent white lamp for 10 minutes. Controls consisted of:
(i) TB (final concentration=10 μM) and bacteria, irradiated for the same period of time,
(ii) nanogold (diluted 1:1 with water) and bacteria, irradiated for the same period of time,
(iii) bacteria without TB or nanogold, not irradiated (“control”).
After irradiation, the number of surviving bacteria was determined by viable counting. […] Note that the TB concentration and light energy dose used were designed to give sub-optimal kills so that differences in efficacy of the TB and the TB-nanogold could be discerned. Preliminary experiments using 30 minutes light exposure achieved total kills of the bacterial suspensions in both cases.
Gold nanoparticles of approximately 15 nm in diameter (batches NN1 and NN2 above) were mixed with an equal volume of aqueous toluidine blue O (TB) and left at room temperature for 15 minutes. TB was used at a final concentration of 1, 5, 10, 20 or 50 μM. 100 μl of the TB-gold mixture was added to 100 μl of a suspension of Staphylococcus aureus NCTC 6571 in phosphate buffered saline (PBS) (adjusted to an optical density of 0.05), and samples were irradiated with a fluorescent white light (28 W) for 10 minutes. S. aureus+TB only, and S. aureus+PBS, without photosensitiser or nanogold were used as controls. The final concentration of nanogold used was 1×10^15 particles/ml. After irradiation, the numbers of surviving bacteria were enumerated by viable counting.
The method of Example 2 was repeated using gold nanoparticles of 2 nm diameter (British Biocell International). The final concentration of nanogold used was 4×10^13 particles/ml. […]

[2] = tested on: Staphylococcus aureus NCTC 6571; assay: Lethal photosensitisation of S. aureus by TBO-tiopronin-gold nanoparticle conjugate, white light (and dark controls), viable counting; assay type: cell-based

Cc1cc2nc3ccc(N(C)C)cc3[s+]c2cc1N.[Cl-] [TB only, toluidine blue O]
% Kill ([1]; 10 min 28 W fluorescent white lamp, 2.0 nm gold, TB final 10 μM): 93.7%
kill of the bacterial suspension ([1]; preliminary experiments, 30 minutes light exposure): total kills
S. aureus (cfu/ml) ([1]; surviving bacteria after 10 min 28 W fluorescent white lamp, 2.0 nm gold, TB final 10 μM): 8570000 cfu/ml
effect on S. aureus ([2]; irradiated with white light for any length of time (15, 30, 45 minutes)): no effect
concentration at which significant kills of the organism were exhibited (only at this concentration) ([2]; white light 30 mins): 2.0 μm
